Results published in PMC11173529, “Structure–Activity Relationship Studies in a Series of Xanthine Inhibitors of SLACK Potassium Channels” (Molecules, 2024).

Target: T1, WT hSLACK (Homo sapiens, UniProt Q5JUK3)
T1 construct: host or cells: CHO-K1
T1 sequence (Q5JUK3 1-1235 isoform Q5JUK3-3): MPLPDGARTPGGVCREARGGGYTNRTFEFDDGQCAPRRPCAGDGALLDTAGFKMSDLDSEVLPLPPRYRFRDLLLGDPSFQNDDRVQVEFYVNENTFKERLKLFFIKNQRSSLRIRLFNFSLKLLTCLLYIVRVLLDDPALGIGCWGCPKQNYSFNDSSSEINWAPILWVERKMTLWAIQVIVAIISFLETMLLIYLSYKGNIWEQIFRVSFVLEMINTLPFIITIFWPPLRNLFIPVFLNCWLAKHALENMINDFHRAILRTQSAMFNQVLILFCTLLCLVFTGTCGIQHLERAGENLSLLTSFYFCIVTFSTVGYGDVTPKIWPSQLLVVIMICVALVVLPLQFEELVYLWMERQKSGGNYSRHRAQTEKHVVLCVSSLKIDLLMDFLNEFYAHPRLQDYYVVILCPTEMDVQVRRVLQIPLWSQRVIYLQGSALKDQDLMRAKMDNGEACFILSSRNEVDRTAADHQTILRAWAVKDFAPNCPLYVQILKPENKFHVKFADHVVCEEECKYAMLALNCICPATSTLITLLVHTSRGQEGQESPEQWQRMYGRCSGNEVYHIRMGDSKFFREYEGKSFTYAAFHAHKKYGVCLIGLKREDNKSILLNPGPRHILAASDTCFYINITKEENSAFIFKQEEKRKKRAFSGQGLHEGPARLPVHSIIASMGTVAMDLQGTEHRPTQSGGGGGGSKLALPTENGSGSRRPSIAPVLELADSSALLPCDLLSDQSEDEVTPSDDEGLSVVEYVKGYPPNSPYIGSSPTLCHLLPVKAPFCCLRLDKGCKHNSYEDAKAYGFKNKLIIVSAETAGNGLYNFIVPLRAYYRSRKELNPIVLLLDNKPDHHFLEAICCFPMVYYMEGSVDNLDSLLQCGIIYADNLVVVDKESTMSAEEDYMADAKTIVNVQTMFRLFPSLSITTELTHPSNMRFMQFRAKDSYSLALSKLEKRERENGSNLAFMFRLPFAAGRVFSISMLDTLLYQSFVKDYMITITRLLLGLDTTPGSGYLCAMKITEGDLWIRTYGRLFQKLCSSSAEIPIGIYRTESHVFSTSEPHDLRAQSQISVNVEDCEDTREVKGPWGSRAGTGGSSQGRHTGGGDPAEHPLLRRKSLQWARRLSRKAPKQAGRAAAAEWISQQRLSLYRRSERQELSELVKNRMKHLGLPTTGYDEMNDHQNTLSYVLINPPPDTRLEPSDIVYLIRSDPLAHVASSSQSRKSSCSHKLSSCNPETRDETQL
Assay: Whole-cell automated patch-clamp (APC) in CHO cells stably expressing WT hSLACK
Format: cell-based
Details: for SLACK Imax: maximum inhibition at 30 µM test compound standardized to VU0606170 (set at 100%), WT hSLACK; for IC50: whole-cell APC, CHO cells stably expressing WT hSLACK, averages n ≥ 3, read-out: SLACK IC50
Protocol: All new analogs were tested in our APC assay using CHO cells stably expressing WT SLACK using a concentration-response format with concentrations ranging from 0.125 to 30 μM in half-log steps and a minimum of three cells (replicates) per concentration series. […] Still, there were some notable results. For example, substitution at the 4-position was largely unfavorable regardless of the nature of the substituent (21, 24, 27, 30, and 33) apart from the 4-fluoro analog 18. […] As the trifluoromethyl group is similar in electronegativity to chlorine, but larger than both methyl and chlorine, perhaps the steric bulk of the trifluoromethyl is to blame for the poor potency of these analogs. With the exception of the fluoro (16–18) and cyano (28–30) analogs, substitution at the 3-position was favorable for SLACK activity, with 3-methoxy analog 32 standing out in this set.
Stably transfected monoclonal HEK293 cell lines expressing Slick, Maxi-K α1/β3, Maxi-K α1/β4, CaV3.2, GIRK 1/2, KV2.1, KV7.2, NaV1.7, and TASK-1 were generated as previously described. Stably transfected monoclonal HEK293 cell lines expressing hERG were generated as previously described. CHO-K1 cells expressing human Slack and disease-associated human Slack mutations, G288S and A934T, were generated by transfecting a PiggyBac TRE mammalian expression vector (VectorBuilder, Chicago, IL, USA) containing KCNT1. FuGENE 6 (Promega, Madison, WI, USA) transfection reagent and protocol, together with Opti-MEM (Thermo Fisher Scientific, Walkham, MA, USA), were utilized.
Automated patch-clamp recording was performed with a SyncroPatch 768 PE system (Nanion, Munich, Germany) as previously described. Whole-cell recordings were performed at room temperature. Cells were harvested by first washing with PBS without Mg^2+ or Ca^2+ (Gibco, Billings, MT, USA) to remove cell culture media, followed by dissociation with TryPLE (Gibco, Billings, MT, USA). Cells were then resuspended and diluted to 100,000 cells/mL in external solution. External solution contained 105 mM NaCl, 4 mM KCl, 1 mM MgCl2, 5 mM CaCl2, 10 mM HEPES, and 40 mM N-Methyl-D-glucamine chloride, titrated to pH of 7.4 and osmolarity of 300 mOsm/kg; internal solution contained 70 mM NaCl, 70 mM KF, 10 mM KCl, 5 mM EGTA, and 5 mM HEPES, titrated to a pH of 7.2 and osmolarity of 295 mOsm/kg.
The APC protocol was set as follows: Cells were held at a […] of −80 mV for 100 ms, then a ramp protocol was performed from −100 mV to 80 mV at 0.4 mV/ms, followed by holding the cell at −80 mV for another 100 ms, then steps were performed at −20 mV, 0 mV, +20 mV, +40 mV, and +60 mV for 100 ms of each step. Whole-cell currents were measured at 0 mV and normalized to current after external buffer addition. […] To obtain the concentration-response relationship graphs and IC50 values, we take the median value of the last 7 current amplitude values obtained for each set of data points collected for a given concentration at a particular step.

CN(Cc1ccccc1)c1nc2c(c(=O)n(Cc3ccccc3)c(=O)n2C)n1C [Analog 8]
SLACK Imax: 100% | IC50: 1700 nM

CN(Cc1ccccc1)c1nc2c(c(=O)n(Cc3ccccc3F)c(=O)n2C)n1C [Analog 16]
SLACK Imax: 100% | IC50: 1800 nM

CN(Cc1ccccc1)c1nc2c(c(=O)n(Cc3cccc(F)c3)c(=O)n2C)n1C [Analog 17]
SLACK Imax: 100% | IC50: 1600 nM

CN(Cc1ccccc1)c1nc2c(c(=O)n(Cc3ccc(F)cc3)c(=O)n2C)n1C [Analog 18]
SLACK Imax: 100% | IC50: 1300 nM

CN(Cc1ccccc1)c1nc2c(c(=O)n(Cc3ccccc3Cl)c(=O)n2C)n1C [Analog 19]
SLACK Imax: 89% | IC50: 2000 nM

CN(Cc1ccccc1)c1nc2c(c(=O)n(Cc3cccc(Cl)c3)c(=O)n2C)n1C [Analog 20]
SLACK Imax: 100% | IC50: 1900 nM

CN(Cc1ccccc1)c1nc2c(c(=O)n(Cc3ccc(Cl)cc3)c(=O)n2C)n1C [Analog 21]
SLACK Imax: 100% | IC50: 2600 nM

Cc1ccccc1Cn1c(=O)c2c(nc(N(C)Cc3ccccc3)n2C)n(C)c1=O [Analog 22]
SLACK Imax: 100% | IC50: 1600 nM

Cc1cccc(Cn2c(=O)c3c(nc(N(C)Cc4ccccc4)n3C)n(C)c2=O)c1 [Analog 23]
SLACK Imax: 100% | IC50: 1500 nM

Cc1ccc(Cn2c(=O)c3c(nc(N(C)Cc4ccccc4)n3C)n(C)c2=O)cc1 [Analog 24]
SLACK Imax: 102% | IC50: 5500 nM

CN(Cc1ccccc1)c1nc2c(c(=O)n(Cc3ccccc3C(F)(F)F)c(=O)n2C)n1C [Analog 25]
SLACK Imax: 70% | IC50: > 10000 nM

CN(Cc1ccccc1)c1nc2c(c(=O)n(Cc3cccc(C(F)(F)F)c3)c(=O)n2C)n1C [Analog 26]
SLACK Imax: 100% | IC50: 4200 nM

CN(Cc1ccccc1)c1nc2c(c(=O)n(Cc3ccc(C(F)(F)F)cc3)c(=O)n2C)n1C [Analog 27]
SLACK Imax: 79% | IC50: 9700 nM

CN(Cc1ccccc1)c1nc2c(c(=O)n(Cc3ccccc3C#N)c(=O)n2C)n1C [Analog 28]
SLACK Imax: 99% | IC50: 2500 nM

CN(Cc1ccccc1)c1nc2c(c(=O)n(Cc3cccc(C#N)c3)c(=O)n2C)n1C [Analog 29]
SLACK Imax: 100% | IC50: 2400 nM

CN(Cc1ccccc1)c1nc2c(c(=O)n(Cc3ccc(C#N)cc3)c(=O)n2C)n1C [Analog 30]
SLACK Imax: 100% | IC50: 2400 nM

COc1ccccc1Cn1c(=O)c2c(nc(N(C)Cc3ccccc3)n2C)n(C)c1=O [Analog 31]
SLACK Imax: 100% | IC50: 1300 nM

COc1ccc(Cn2c(=O)c3c(nc(N(C)Cc4ccccc4)n3C)n(C)c2=O)cc1 [Analog 33]
SLACK Imax: 78% | IC50: > 10000 nM

CCn1c(N(C)Cc2ccccc2)nc2c1c(=O)n(Cc1ccccc1)c(=O)n2C [Analog 41]
SLACK Imax: 87% | IC50: > 10000 nM

CCCn1c(N(C)Cc2ccccc2)nc2c1c(=O)n(Cc1ccccc1)c(=O)n2C [Analog 42]
SLACK Imax: 94% | IC50: > 10000 nM

CN(Cc1ccccc1)c1nc2c(c(=O)n(Cc3ccccc3)c(=O)n2C)n1CC1CC1 [Analog 43]
SLACK Imax: 55% | IC50: > 10000 nM

Cn1c(NCc2ccccc2)nc2c1c(=O)n(Cc1ccccc1)c(=O)n2C [Analog 46a]
SLACK Imax: 88% | IC50: 6000 nM

CN(Cc1ccccc1F)c1nc2c(c(=O)n(Cc3ccccc3)c(=O)n2C)n1C [Analog 47]
SLACK Imax: 100% | IC50: 2700 nM

CN(Cc1ccc(F)cc1)c1nc2c(c(=O)n(Cc3ccccc3)c(=O)n2C)n1C [Analog 49]
SLACK Imax: 100% | IC50: 1600 nM

CN(Cc1ccccc1Cl)c1nc2c(c(=O)n(Cc3ccccc3)c(=O)n2C)n1C [Analog 50]
SLACK Imax: 100% | IC50: 3000 nM

CN(Cc1cccc(Cl)c1)c1nc2c(c(=O)n(Cc3ccccc3)c(=O)n2C)n1C [Analog 51]
SLACK Imax: 100% | IC50: 1700 nM

CN(Cc1ccc(Cl)cc1)c1nc2c(c(=O)n(Cc3ccccc3)c(=O)n2C)n1C [Analog 52]
SLACK Imax: 100% | IC50: 2300 nM

Cc1ccccc1CN(C)c1nc2c(c(=O)n(Cc3ccccc3)c(=O)n2C)n1C [Analog 53]
SLACK Imax: 100% | IC50: 9900 nM

Cc1cccc(CN(C)c2nc3c(c(=O)n(Cc4ccccc4)c(=O)n3C)n2C)c1 [Analog 54]
SLACK Imax: 100% | IC50: 2000 nM

Cc1ccc(CN(C)c2nc3c(c(=O)n(Cc4ccccc4)c(=O)n3C)n2C)cc1 [Analog 55]
SLACK Imax: 100% | IC50: 1800 nM

CN(Cc1ccccc1C(F)(F)F)c1nc2c(c(=O)n(Cc3ccccc3)c(=O)n2C)n1C [Analog 56]
SLACK Imax: 100% | IC50: 1900 nM

CN(Cc1cccc(C(F)(F)F)c1)c1nc2c(c(=O)n(Cc3ccccc3)c(=O)n2C)n1C [Analog 57]
SLACK Imax: 101% | IC50: 1500 nM

CN(Cc1ccc(C(F)(F)F)cc1)c1nc2c(c(=O)n(Cc3ccccc3)c(=O)n2C)n1C [Analog 58]
SLACK Imax: 100% | IC50: 1900 nM

COc1ccccc1CN(C)c1nc2c(c(=O)n(Cc3ccccc3)c(=O)n2C)n1C [Analog 59]
SLACK Imax: 101% | IC50: 4700 nM

COc1cccc(CN(C)c2nc3c(c(=O)n(Cc4ccccc4)c(=O)n3C)n2C)c1 [Analog 60]
SLACK Imax: 100% | IC50: 2700 nM

COc1ccc(CN(C)c2nc3c(c(=O)n(Cc4ccccc4)c(=O)n3C)n2C)cc1 [Analog 61]
SLACK Imax: 100% | IC50: 2400 nM

CN(Cc1ccccn1)c1nc2c(c(=O)n(Cc3ccccc3)c(=O)n2C)n1C [Analog 62]
SLACK Imax: 107% | IC50: > 10000 nM

CN(Cc1cccnc1)c1nc2c(c(=O)n(Cc3ccccc3)c(=O)n2C)n1C [Analog 63]
SLACK Imax: 20% | IC50: > 10000 nM

CN(Cc1ccncc1)c1nc2c(c(=O)n(Cc3ccccc3)c(=O)n2C)n1C [Analog 64]
SLACK Imax: 70% | IC50: > 10000 nM

C[C@H](c1ccccc1)N(C)c1nc2c(c(=O)n(Cc3ccccc3)c(=O)n2C)n1C [Analog 65]
SLACK Imax: 100% | IC50: 1600 nM
